Results taken from patent publication US20090227619A1, “Harmine derivatives, intermediates used in their preparations, preparation processes and use therefo” (priority 2003, published 2009).
Where two headings read alike, the source gives them in different places.

Key:
Lovo = assay: In vitro cytotoxicity, IC50 by MTT method, Lovo; assay type: cell-based
Summary of the method: (§1)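 Cells in RPMI1640 with 10% FBS at 37° C, 5% CO2 were seeded at 10^5/ml and exposed to a compound concentration gradient for 48 h, at least three replicates, solvent controls.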

HepG2 = assay: In vitro cytotoxicity, IC50 by MTT method, HepG2; assay type: cell-based, human
Summary of the method: as §1

Kunming mice = settings: summary Table 34, compounds marked *, results [153] of the previous tests; in mg/kg; cited from earlier work
PLA-801 = assay: In vitro cytotoxicity, IC50 by MTT method, PLA-801; assay type: cell-based
Summary of the method: as §1

BGC-823 = assay: In vitro cytotoxicity, IC50 by MTT method, BGC-823; assay type: cell-based
Summary of the method: as §1

NIH3T3 = assay: In vitro cytotoxicity, IC50 by MTT method, NIH3T3; assay type: cell-based
Summary of the method: as §1

CT-DNA [1] = assay: DNA thermal denaturation, determination of ΔTm; assay type: binding; settings: 20 uM compound, Tm of CT-DNA alone 61° C.
Summary of the method: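 CT-DNA at 15 ug/ml in PE buffer (1 mM Na2HPO4, 0.1 mM EDTA, pH 7.6), heated at 0.5° C./min from 25 to 95° C. Tm taken as hyperchromic transition mid-point; ΔTm = Tm of drug-DNA complex minus Tm of DNA alone, mean of three runs.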

Hela = assay: In vitro cytotoxicity, IC50 by MTT method, Hela; assay type: cell-based
Summary of the method: as §1

Bel-7402 = assay: In vitro cytotoxicity, IC50 by MTT method, Bel-7402; assay type: cell-based
Summary of the method: as §1

CT-DNA [2] = assay: UV absorption spectrum method with CT-DNA; assay type: binding; settings: CT-DNA 40 ug/ml, compound 20 uM, 37° C. for 2 h, OD at 260 nm
HepG2 cells = assay: FCM analysis of apoptosis of HepG2 cells; assay type: cell-based, human; settings: FIG. 6
[3] = Homo sapiens, Lovo, MTT, read-out: IC50
[4] = Homo sapiens, HepG2, MTT, read-out: IC50
[5] = comparison table 43, in vivo, S180 sarcoma
[6] = comparison table 43, in vivo, Lewis lung cancer
[7] = Homo sapiens, BGC-823, BGC823, MTT, read-out: IC50
[8] = Mus musculus, NIH3T3, MTT, read-out: IC50
[9] = Homo sapiens, Hela, MTT, read-out: IC50
[10] = Homo sapiens, Bel-7402, BeI7402, MTT, read-out: IC50
[11] = Homo sapiens, Lovo cell strain, read-out: IC50 Lovo
[12] = Homo sapiens, HepG2 cell strain, read-out: IC50 HepG2
[13] = PLA-801 cell strain, read-out: IC50 PLA-801
[14] = Homo sapiens, BGC-823, BGC823 cell strain, read-out: IC50 BGC823
[15] = Mus musculus, NIH3T3 cell strain, read-out: IC50 NIH3T3
[16] = Homo sapiens, Hela cell strain, read-out: IC50 Hela
[17] = Homo sapiens, Bel-7402, Bel7402 cell strain, read-out: IC50 Bel7402
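Wherever Anti-tumor activity compared with harmine (compound 1) is given: mice implanted subcutaneously in the axilla with Lewis lung tumor cells, treated starting the following day, killed roughly three weeks after implantation.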
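Wherever Inhibition rate (%) Lewis cancer is given: mice implanted subcutaneously in the axilla with Lewis lung tumor cells, treated starting the following day, killed roughly three weeks after implantation.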

Description for Lewis lung cancer: There was one group of 8 to 10 mice C57BL/6 and Kunming mice for the anti-tumor tests and two groups of mice for negative control.
(3) Sources of tumors: Lewis lung cancer cells and S180 sarcoma in mice, which were sub-cultured and maintained by Pharmacological Center of Shanghai Pharmaceutical Industrial Research Institute.
All samples were weighed and added a small amount of Tween-80 to facilitate dissolution during the experiment, and then 0.5% CMC-Na solution was gradually added to achieve the desired concentration. The volume for experiment was 0.5 ml/20 g mouse.
The medicaments were intraperitoneally administered once a day continuously for 10 days.
For the negative control group, a vehicle of the same volume was intraperitoneally administered once a day continuously for 10 days. For the positive control group, CTX was administered in the dosage of 30 mg/kg once a day continuously for 7 days.
In vivo anti-tumor subcutaneous vaccination in the axilla was employed. Wildly grown tumor source was taken under sterile conditions to form a cell suspension of about 1×10^7 ml by homogenization method. For a corresponding mouse host, the suspension was injected in the axilla in an amount of 0.2 ml/mouse. The next day, the medicaments were administered according to the design of the tests. About three weeks later, all the groups of animals were executed. The tumors were taken from the animals and weighed. The inhibition rate of tumors was calculated according to the following formula:
T: average tumor weight of treated group; C: average tumor weight of negative control group.

Q: Which IC50 (Lovo; [3]) does the source give for `COc1ccc2c3ccnc(C)c3n(C)c2c1` [Compound 2, 7-methoxyl-1,9-dimethyl-β-carboline] here?
A: Its IC50 is 40 µM.

Q: And the IC50 (HepG2; [4])?
A: The IC50 was 20 µM.

Q: And the LD50 (Kunming mice)?
A: Its LD50 is 28.92.

Q: What about the “Inhibition rate (%) S180 sarcomata” value (S180 sarcoma; [5]) of the same compound?
A: The value was 32.1%.

Q: What about the IC50 (PLA-801; PLA-801, MTT, read-out: IC50) of the same compound?
A: The IC50 was 30 µM.

Q: What about the “Inhibition rate (%) Lewis cancer” value (Lewis lung cancer; [6]) of the same compound?
A: Its value is 38.1%.

Q: And the IC50 (BGC-823; [7])?
A: Its IC50 is 50 µM.

Q: And the IC50 (NIH3T3; [8])?
A: Its IC50 is 40 µM.

Q: What about the ΔTm (CT-DNA [1]; CT-DNA thermal denaturation) of the same compound?
A: Its ΔTm is 5.3 °C.

Q: What about the IC50 (Hela; [9]) of the same compound?
A: The IC50 was 10 µM.

Q: What about the IC50 (Bel-7402; [10]) of the same compound?
A: Its IC50 is 60 µM.

Q: For `CCn1c2cc(OC)ccc2c2ccnc(C)c21` [Compound 3, 7-methoxyl-9-ethyl-1-methyl-β-carboline], which IC50 (Lovo; Homo sapiens, LoVo) is on record?
A: Its IC50 is 170 µM.

Q: And the IC50 (HepG2; Homo sapiens, HepG2)?
A: The IC50 was 10 µM.

Q: And the LD50 (Kunming mice)?
A: The LD50 was 24.25.

Q: And the “Inhibition rate (%) S180 sarcomata” value (S180 sarcoma; mouse, in vivo)?
A: Its value is 37.6%.

Q: And the IC50 (PLA-801)?
A: Its IC50 is 20 µM.

Q: And the “Inhibition rate (%) Lewis cancer” value (Lewis lung cancer; mouse, in vivo)?
A: Its value is 42.0%.

Q: And the IC50 (BGC-823; Homo sapiens, BGC-823)?
A: Its IC50 is 50 µM.

Q: What about the IC50 (NIH3T3; Mus musculus, NIH3T3) of the same compound?
A: The IC50 was 70 µM.

Q: What about the ΔTm (CT-DNA [1]; CT-DNA thermal denaturation) of the same compound?
A: Its ΔTm is 7.3 °C.

Q: And the IC50 (Hela; Homo sapiens, HeLa)?
A: Its IC50 is 20 µM.

Q: And the IC50 (Bel-7402; Homo sapiens, Bel-7402)?
A: Its IC50 is 30 µM.

Q: What about the “Influence on the UV absorption of DNA” value (CT-DNA [2]) of the same compound?
A: The value was “reduce the UV absorption of DNA”.

Q: For `CCCCn1c2cc(OC)ccc2c2ccnc(C)c21` [Compound 4, 7-methoxyl-9-n-butyl-1-methyl-β-carboline], which IC50 (Lovo; [3]) is on record?
A: The IC50 was 90 µM.

Q: And the IC50 (HepG2; [4])?
A: The IC50 was 60 µM.

Q: And the LD50 (Kunming mice)?
A: The LD50 was 26.45.

Q: What about the “Inhibition rate (%) S180 sarcomata” value (S180 sarcoma; [5]) of the same compound?
A: Its value is 40.9%.

Q: What about the IC50 (PLA-801; PLA-801, MTT, read-out: IC50) of the same compound?
A: The IC50 was 110 µM.

Q: What about the “Inhibition rate (%) Lewis cancer” value (Lewis lung cancer; [6]) of the same compound?
A: Its value is 44.0%.

Q: And the IC50 (BGC-823; [7])?
A: The IC50 was 70 µM.

Q: And the IC50 (NIH3T3; [8])?
A: Its IC50 is 40 µM.

Q: What about the ΔTm (CT-DNA [1]; CT-DNA thermal denaturation) of the same compound?
A: Its ΔTm is 6.7 °C.

Q: What about the IC50 (Hela; [9]) of the same compound?
A: Its IC50 is 30 µM.

Q: What about the IC50 (Bel-7402; [10]) of the same compound?
A: Its IC50 is 60 µM.

Q: And the “Influence on the UV absorption of DNA” value (CT-DNA [2])?
A: Its value is “reduce the UV absorption of DNA”.

Q: With `COc1ccc2c3ccnc(C)c3n(Cc3ccccc3)c2c1` [Compound 6, 9-benzyl-7-methoxy-1-methyl-β-carboline] as the compound, how does the IC50 (Lovo; [3]) read?
A: The IC50 was 50 µM.

Q: And the IC50 (HepG2; [4])?
A: The IC50 was 90 µM.

Q: What about the LD50 (Kunming mice) of the same compound?
A: The LD50 was 147.82.

Q: And the “Inhibition rate (%) S180 sarcomata” value (S180 sarcoma; [5])?
A: Its value is 45.2%.

Q: And the IC50 (PLA-801; PLA-801, MTT, read-out: IC50)?
A: The IC50 was 60 µM.

Q: And the “Inhibition rate (%) Lewis cancer” value (Lewis lung cancer; [6])?
A: Its value is 46.9%.

Q: What about the IC50 (BGC-823; [7]) of the same compound?
A: The IC50 was 100 µM.

Q: What about the IC50 (NIH3T3; [8]) of the same compound?
A: The IC50 was 50 µM.

Q: And the ΔTm (CT-DNA [1]; CT-DNA 15 ug/ml, PE buffer pH 7.6)?
A: Its ΔTm is 10.3 °C.

Q: And the ΔTm (CT-DNA [1]; CT-DNA thermal denaturation)?
A: Its ΔTm is 10.3 °C.

Q: And the IC50 (Hela; [9])?
A: Its IC50 is 270 µM.

Q: And the IC50 (Bel-7402; [10])?
A: Its IC50 is 60 µM.

Q: What about the “Influence on the UV absorption of DNA” value (CT-DNA [2]) of the same compound?
A: The value was “reduce the UV absorption of DNA”.

Q: For `COC(=O)c1cc2c3ccccc3n(C)c2cn1` [Compound 26, methyl 9-methyl-β-carboline-3-carboxylate], which IC50 (Lovo; [11]) is on record?
A: The IC50 was 180 µM.

Q: And the IC50 (HepG2; [12])?
A: The IC50 was 120 µM.

Q: And the LD50 (Kunming mice)?
A: Its LD50 is 70.61.

Q: And the “Inhibition rate (%) S180 sarcomata” value (S180 sarcoma; [5])?
A: The value was 31.1%.

Q: What about the IC50 (PLA-801; [13]) of the same compound?
A: The IC50 was 120 µM.

Q: And the “Inhibition rate (%) Lewis cancer” value (Lewis lung cancer; [6])?
A: Its value is 35.0%.

Q: And the IC50 (BGC-823; [14])?
A: Its IC50 is 180 µM.

Q: And the IC50 (NIH3T3; [15])?
A: Its IC50 is 90 µM.

Q: What about the IC50 (Hela; [16]) of the same compound?
A: Its IC50 is 180 µM.

Q: And the IC50 (Bel-7402; [17])?
A: Its IC50 is 190 µM.

Q: For `CCn1c2ccccc2c2cc(C(=O)OC)ncc21` [Compound 27, methyl 9-ethyl-β-carboline-3-carboxylate], which IC50 (Lovo; [11]) is on record?
A: The IC50 was 110 µM.

Q: What about the IC50 (HepG2; [12]) of the same compound?
A: The IC50 was 160 µM.

Q: And the LD50 (Kunming mice)?
A: Its LD50 is 95.06.

Q: What about the “Inhibition rate (%) S180 sarcomata” value (S180 sarcoma; [5]) of the same compound?
A: The value was 29.0%.

Q: What about the IC50 (PLA-801; [13]) of the same compound?
A: The IC50 was 290 µM.

Q: And the “Anti-tumor activity compared with harmine (compound 1)” value (Lewis lung cancer; Lewis lung cancer in mice, among 22 compounds tested)?
A: Its value is “a little worse than or equivalent to that of harmines”.

Q: What about the “Inhibition rate (%) Lewis cancer” value (Lewis lung cancer; [6]) of the same compound?
A: Its value is 30.5%.

Q: What about the IC50 (BGC-823; [14]) of the same compound?
A: The IC50 was 250 µM.

Q: And the IC50 (NIH3T3; [15])?
A: The IC50 was 130 µM.

Q: What about the IC50 (Hela; [16]) of the same compound?
A: Its IC50 is 210 µM.

Q: And the IC50 (Bel-7402; [17])?
A: Its IC50 is 530 µM.

Q: What does the source list for `CCOC(=O)c1cc2c3ccccc3n(Cc3c(F)c(F)c(F)c(F)c3F)c2c(C)n1` [Compound 60, ethyl 9-(2′,3′,4′,5′,6′-pentafluoro)benzyl-1-methyl-β-carboline-3-carboxylate]?
A: IC50 (Lovo; Lovo cell strain, read-out: IC50 Lovo): 40 µM; Apoptosis of HepG2 cells (FCM analysis) (HepG2 cells): apoptosis of HepG2 cells induced; IC50 (HepG2; HepG2 cell strain, read-out: IC50 HepG2): 30 µM; IC50 (PLA-801; [13]): 50 µM; IC50 (BGC-823; BGC823 cell strain, read-out: IC50 BGC823): 4 µM; IC50 (NIH3T3; NIH3T3 cell strain, read-out: IC50 NIH3T3): 40 µM; IC50 (Hela; Hela cell strain, read-out: IC50 Hela): 20 µM; IC50 (Bel-7402; Bel7402 cell strain, read-out: IC50 Bel7402): 100 µM
